Data published in ChEMBL document CHEMBL1154080, “2D-QSAR and 3D-QSAR/CoMFA analyses of the N-terminal substituted anthranilic acid based CCK(1) receptor antagonists: 'Hic Rhodus, hic saltus'” (Bioorg Med Chem, 2009).
pIC50: −log10 of the molar value.

Legend:
[1] = target: T1, Cholecystokinin receptor type A (Rattus norvegicus, UniProt P30551); experiment: Displacement of [125I]-CCK8 from CCK1 receptor in rat pancreatic acinar cells
T1 sequence (P30551 whole entry): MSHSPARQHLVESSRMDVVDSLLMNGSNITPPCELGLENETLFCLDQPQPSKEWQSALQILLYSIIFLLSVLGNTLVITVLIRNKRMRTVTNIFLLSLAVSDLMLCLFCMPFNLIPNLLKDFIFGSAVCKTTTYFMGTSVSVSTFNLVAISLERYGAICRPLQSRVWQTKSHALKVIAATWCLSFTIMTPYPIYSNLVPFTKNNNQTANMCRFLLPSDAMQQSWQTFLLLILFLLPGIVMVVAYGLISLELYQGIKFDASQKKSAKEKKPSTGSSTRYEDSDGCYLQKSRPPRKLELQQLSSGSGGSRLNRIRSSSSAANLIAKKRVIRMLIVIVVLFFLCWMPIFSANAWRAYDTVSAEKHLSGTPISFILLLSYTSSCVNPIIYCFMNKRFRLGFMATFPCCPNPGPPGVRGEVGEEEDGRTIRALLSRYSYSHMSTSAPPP

[2] = (§1) Displacement of [125I]-CCK8 from CCK2 receptor in guinea pig cerebral cortex; type: tissue-based, Cavia porcellus
[3] = target: T2, Cholecystokinin receptor type A (Rattus norvegicus) (UniProt P30551); experiment: Displacement of [125I]-CCK8 from CCK1 receptor in rat pancreatic acinar cells 10 uM
T2 sequence (whole entry): T1 sequence (P30551 whole entry)

Cavia porcellus [4] = species: Cavia porcellus; experiment: Displacement of [125I]-CCK8 from CCK2 receptor in guinea pig cerebral cortex at 30 uM; type: tissue-based
Cavia porcellus [5] = species: Cavia porcellus; experiment: Displacement of [125I]-CCK8 from CCK2 receptor in guinea pig cerebral cortex at 10 uM; type: tissue-based
[6] = target: T2, Cholecystokinin receptor type A (Rattus norvegicus); experiment: Displacement of [125I]-CCK8 from CCK1 receptor in rat pancreatic acinar cells at 3 uM
Cavia porcellus [7] = species: Cavia porcellus; experiment: Displacement of [125I]-CCK8 from CCK2 receptor in guinea pig cerebral cortex at 3 uM; type: tissue-based
[8] = target: T2, Cholecystokinin receptor type A (Rattus norvegicus); experiment: Displacement of [125I]-CCK8 from CCK1 receptor in rat pancreatic acinar cells at 1 uM
Cavia porcellus [9] = species: Cavia porcellus; experiment: as §1; type: tissue-based; conditions: concentration not given here
[10] = target: T2, Cholecystokinin receptor type A (Rattus norvegicus); experiment: Displacement of [125I]-CCK8 from CCK1 receptor in rat pancreatic acinar cells 30 uM

Row | pIC50 [1] | pIC50 [2] | Structure (SMILES) | also measured
1 | 6.50 | 4.97 | O=C(Nc1ccccc1C(=O)NC(Cc1ccccc1)C(=O)O)c1cc2cc(F)ccc2[nH]1 (racemic) | –
2 | 6.53 | 4.43 | O=C(Nc1ccccc1C(=O)NC(Cc1ccccc1)C(=O)O)c1cc2ccc(F)cc2[nH]1 (racemic) | –
3 | – | – | O=C(Cc1c[nH]c2ccccc12)Nc1ccccc1C(=O)NC(Cc1ccccc1)C(=O)O (racemic) | inhibition [3]: < 20%; inhibition (Cavia porcellus [4]): 23%
4 | – | 4.15 | O=C(Nc1ccccc1C(=O)NC(Cc1ccccc1)C(=O)O)c1cc2c([nH]1)CCCC2 (racemic) | –
5 | – | – | O=C(Nc1ccccc1C(=O)NC(Cc1ccccc1)C(=O)O)C1=Cc2ccccc2C1 (racemic) | inhibition (Cavia porcellus [5]): < 20%
6 | 4.88 | 4.22 | O=C(Nc1ccccc1C(=O)NC(Cc1ccccc1)C(=O)O)C1=CC2CCCC2N1 (racemic) | –
7 | – | – | O=C(Nc1ccccc1C(=O)NC(Cc1ccccc1)C(=O)O)c1ccncc1 (racemic) | inhibition [6]: < 20%; inhibition (Cavia porcellus [4]): 26%
8 | – | – | O=C(/C=C/c1ccccc1[N+](=O)[O-])Nc1ccccc1C(=O)NC(Cc1ccccc1)C(=O)O (racemic) | inhibition [6]: < 20%; inhibition (Cavia porcellus [4]): 46%
9 | – | – | O=C(Nc1ccccc1C(=O)NC(Cc1ccccc1)C(=O)O)c1cc2cc(OCc3ccccc3)ccc2[nH]1 (racemic) | inhibition (Cavia porcellus [7]): < 20%; inhibition [8]: < 20%
10 | 5.69 | 5.01 | Cc1c(C(=O)Nc2ccccc2C(=O)NC(Cc2ccccc2)C(=O)O)[nH]c2ccccc12 (racemic) | –
11 | 6.17 | 4.99 | Cc1cccc2cc(C(=O)Nc3ccccc3C(=O)NC(Cc3ccccc3)C(=O)O)[nH]c12 (racemic) | –
12 | – | 4.99 | O=C(Nc1ccccc1C(=O)NC(Cc1ccccc1)C(=O)O)c1nc2ccccc2[nH]1 (racemic) | –
13 | – | – | O=C(Nc1ccccc1C(=O)NC(Cc1ccccc1)C(=O)O)c1cccnc1 (racemic) | inhibition [6]: < 20%; inhibition (Cavia porcellus [4]): 44%
14 | 5.59 | – | O=C(Nc1ccccc1C(=O)NC(Cc1ccccc1)C(=O)O)c1cccs1 (racemic) | inhibition (Cavia porcellus [4]): 24%
15 | – | 4.79 | O=C(Nc1ccccc1C(=O)NC(Cc1ccccc1)C(=O)O)c1cc2ccccc2[nH]1 (racemic) | –
16 | – | 5.00 | Cn1c(C(=O)Nc2ccccc2C(=O)NC(Cc2ccccc2)C(=O)O)cc2ccccc21 (racemic) | –
17 | 5.96 | – | Cn1c(C(=O)Nc2ccccc2C(=O)NC(Cc2ccccc2)C(=O)O)cc2cc([N+](=O)[O-])ccc21 (racemic) | inhibition (Cavia porcellus [7]): < 20%
18 | – | 4.97 | O=C(Nc1ccccc1C(=O)NC(Cc1ccccc1)C(=O)O)c1cc2ccccc2s1 (racemic) | –
19 | 4.88 | – | O=C(NC(Cc1ccccc1)C(=O)O)c1ccccc1NC(=O)c1nccc2ccccc12 (racemic) | inhibition (Cavia porcellus [4]): 53%

Row | pIC50 [1] | pIC50 [2] | Structure (SMILES) | also measured
20 | – | 4.77 | COc1ccc2[nH]c(C(=O)Nc3ccccc3C(=O)NC(Cc3ccccc3)C(=O)O)cc2c1 (racemic) | inhibition [6]: 42%
21 | – | 5.23 | O=C(NC(Cc1ccccc1)C(=O)O)c1ccccc1NS(=O)(=O)c1cccc2ccccc12 (racemic) | inhibition [3]: < 20%
22 | – | – | O=C(/C=C/c1ccccc1)Nc1ccccc1C(=O)NC(Cc1ccccc1)C(=O)O (racemic) | inhibition (Cavia porcellus [4]): 49%
23 | – | 4.84 | O=C(NC(Cc1ccccc1)C(=O)O)c1ccccc1NC(=O)C12CC3CC(CC(C3)C1)C2 (racemic) | inhibition [3]: < 20%
24 | – | – | O=C(Nc1ccccc1C(=O)NC(Cc1ccccc1)C(=O)O)c1cnccn1 (racemic) | inhibition [6]: < 20%; inhibition (Cavia porcellus [4]): < 20%
25 | – | 4.84 | O=C(Nc1ccccc1C(=O)NC(Cc1ccccc1)C(=O)O)c1ccc2ccccc2n1 (racemic) | inhibition [3]: 48%
26 | 6.82 | 4.17 | O=C(Nc1ccccc1C(=O)N[C@H](Cc1ccccc1)C(=O)O)c1cc2cc(F)ccc2[nH]1 | –
27 | 5.45 | 5.05 | O=C(Nc1ccccc1C(=O)N[C@@H](Cc1ccccc1)C(=O)O)c1cc2cccc(F)c2[nH]1 | –
28 | – | – | O=C(Cc1ccccc1)Nc1ccccc1C(=O)NC(Cc1ccccc1)C(=O)O (racemic) | inhibition [3]: < 20%; inhibition (Cavia porcellus [4]): 36%
29 | – | 4.82 | O=C(NC(Cc1ccccc1)C(=O)O)c1ccccc1NC(=O)c1ccnc2ccccc12 (racemic) | inhibition [6]: < 20%
30 | – | 5.03 | O=C(Nc1ccccc1C(=O)NC(Cc1ccccc1)C(=O)O)c1cc2cc(F)cc(F)c2[nH]1 (racemic) | inhibition [3]: 59%
31 | – | – | O=C(Nc1ccccc1C(=O)NC(Cc1ccccc1)C(=O)O)c1ccco1 (racemic) | inhibition [6]: 24%; inhibition (Cavia porcellus [4]): 27%
32 | 6.27 | 4.95 | O=C(Nc1ccccc1C(=O)NC(Cc1ccccc1)C(=O)O)c1cc2cccc(C(F)(F)F)c2[nH]1 (racemic) | –
33 | – | – | CC(C)(C)CC(=O)Nc1ccccc1C(=O)NC(Cc1ccccc1)C(=O)O (racemic) | inhibition [3]: < 20%; inhibition (Cavia porcellus [4]): 37%
34 | – | – | O=C(Nc1ccccc1C(=O)NC(Cc1ccccc1)C(=O)O)c1ccccn1 (racemic) | inhibition [6]: < 20%; inhibition (Cavia porcellus [4]): 31%
35 | – | 4.86 | CC1=C(C(=O)Nc2ccccc2C(=O)NC(Cc2ccccc2)C(=O)O)Cc2ccccc21 (racemic) | –
36 | – | – | Cn1cccc1C(=O)Nc1ccccc1C(=O)NC(Cc1ccccc1)C(=O)O (racemic) | inhibition [6]: 21%
37 | – | – | O=C(Nc1ccccc1C(=O)NC(Cc1ccccc1)C(=O)O)c1ccc2[nH]ccc2c1 (racemic) | inhibition [3]: 41%
38 | – | 4.87 | O=C(CCc1c[nH]c2ccccc12)Nc1ccccc1C(=O)NC(Cc1ccccc1)C(=O)O (racemic) | –

Row | pIC50 [1] | pIC50 [2] | Structure (SMILES) | also measured
39 | 5.73 | – | O=C(Nc1ccccc1C(=O)NC(Cc1ccccc1)C(=O)O)c1cc2cc(Cl)ccc2[nH]1 (racemic) | inhibition (Cavia porcellus [4]): 31%
40 | – | 5.14 | O=C(NC(Cc1ccccc1)C(=O)O)c1ccccc1NS(=O)(=O)c1ccc2ccccc2c1 (racemic) | inhibition [3]: < 20%
41 | 6.97 | 4.77 | O=C(Nc1ccccc1C(=O)N[C@H](Cc1ccccc1)C(=O)O)c1cc2ccccc2[nH]1 | –
42 | 6.05 | 4.86 | O=C(Nc1ccccc1C(=O)NC(Cc1ccccc1)C(=O)O)c1cc2ccccc2o1 (racemic) | –
43 | – | 5.18 | O=C(NC(Cc1ccccc1)C(=O)O)c1ccccc1NC(=O)c1cccc2ccccc12 (racemic) | inhibition [3]: < 20%
44 | – | – | O=C(CCc1ccccc1)Nc1ccccc1C(=O)NC(Cc1ccccc1)C(=O)O (racemic) | inhibition [3]: < 20%; inhibition (Cavia porcellus [4]): 37%
45 | 4.52 | – | O=C(Nc1ccccc1C(=O)N[C@@H](Cc1ccccc1)C(=O)O)c1cc2cc(F)ccc2[nH]1 | inhibition (Cavia porcellus [4]): 20%
46 | 4.99 | – | O=C(Nc1ccccc1C(=O)N[C@@H](Cc1ccccc1)C(=O)O)c1cc2ccccc2[nH]1 | inhibition (Cavia porcellus [9]): 52%
47 | 7.26 | 4.70 | O=C(Nc1ccccc1C(=O)N[C@H](Cc1ccccc1)C(=O)O)c1cc2cccc(F)c2[nH]1 | –
48 | 6.80 | 4.73 | O=C(Nc1ccccc1C(=O)NC(Cc1ccccc1)C(=O)O)c1cc2cccc(F)c2[nH]1 (racemic) | –
49 | 5.45 | – | O=C(Nc1ccccc1C(=O)NC(Cc1ccccc1)C(=O)O)c1cc2cc([N+](=O)[O-])ccc2[nH]1 (racemic) | inhibition (Cavia porcellus [4]): 31%
50 | – | – | CC(C)(C)C(=O)Nc1ccccc1C(=O)NC(Cc1ccccc1)C(=O)O (racemic) | inhibition [3]: < 20%; inhibition (Cavia porcellus [4]): 24%
51 | 6.03 | 5.02 | O=C(Nc1ccccc1C(=O)NC(Cc1ccccc1)C(=O)O)c1cc2c(F)cccc2[nH]1 (racemic) | –
52 | – | 4.52 | O=C(NC(Cc1ccccc1)C(=O)O)c1ccccc1NC(=O)c1c[nH]c2ccccc12 (racemic) | –
53 | – | – | O=C(Nc1ccccc1C(=O)NC(Cc1ccccc1)C(=O)O)c1ccc[nH]1 (racemic) | inhibition [6]: < 20%
54 | 5.55 | 5.38 | Cc1ccc2[nH]c(C(=O)Nc3ccccc3C(=O)NC(Cc3ccccc3)C(=O)O)cc2c1 (racemic) | –
55 | – | 4.81 | O=C(CC12CC3CC(CC(C3)C1)C2)Nc1ccccc1C(=O)NC(Cc1ccccc1)C(=O)O (racemic) | inhibition [10]: 51%
56 | – | – | COc1cc2cc(C(=O)Nc3ccccc3C(=O)NC(Cc3ccccc3)C(=O)O)[nH]c2cc1OC (racemic) | inhibition (Cavia porcellus [7]): < 20%; inhibition [8]: < 20%
57 | – | 4.73 | O=C(Nc1ccccc1C(=O)NC(Cc1ccccc1)C(=O)O)c1cnc2ccccc2c1 (racemic) | –
